According to patent US11819019B2, “Protein-free semen cryopreservation” (University of Saskatchewan, priority 2017, dated 2023):
Where no end group is shown, it is not given here. [ ]: non-standard residue; d: D form. Dmt = Cc1cc(O)cc(C)c1C[C@H](N)C(=O)O

Tests used:
[1] = tested on: bull sperm; experiment: Motility of fresh bull sperm after exposure to cell penetrating peptides, CASA (Example 8); assay type: cell-based; conditions: CPPs added at 37° C., FIG. 13
Experimental: Semen was collected from four bulls using electro-ejaculator. Semen was analyzed with Computer Assisted Semen Analysis (CASA) and washed (2×) with tris citric acid buffer (TB). The washed semen was diluted to 2.2 million/ml with TB. Semen (46 μl) was mixed with 4 μl of 100 μM solution of SS31 or mTP4. TB buffer alone was added in the control sample. […] After incubation, sperm motility was analyzed by CASA and then cells were treated with 2.5 μl propidium iodide (50 μg/ml) or 3 μl SYBR-14. Sperm were fixed with 10 μl of 10%-formaldehyde and another 500 μl PBS was added before flowcytometry analysis.

[2] = tested on: bull sperm; experiment: Frozen-thaw longevity of bull sperm with cell penetrating peptides, CASA at 0, 2 and 4 hrs (Example 8); assay type: cell-based
Experimental: Semen was collected from four beef bulls using electro-ejaculator. Immediately after collection, 0.5 μM SS31 or mTP4 was added per ml semen. Concentration of up to 20 μM SS31 or mTP4 were also used. Semen transported to Cryobiology Lab where semen was analyzed with CASA. Semen was further diluted with egg yolk extender to 50 million per ml, packaged in straws and frozen following a freezing curve developed in our lab. Frozen semen with and without SS31 was thawed and CASA analysis was conducted at 0 (<15 min), 2 and 4 hrs. Structural characters, i.e. plasma membrane and acrosome, were also analyzed using FITC-PNA and PI assay with flow cytometer, as described in Examples 4 and 5.

[3] = tested on: equine sperm; conditions: Vidament et al, 2005; cited from earlier work

Row | Molecule | sperm motility and progressive motility as compared control [1] | Percent decline motility over time ([2]; 4 hr post-thaw, vs control and mTP4 groups, FIG. 15) | post-thaw total sperm motility and progressive motility vs control ([2]; semen frozen in egg yolk extender, 0, 2 and 4 hrs post-thaw, FIG. 14) | concentration in a preservation medium reported to be toxic to equine sperm [3]
1 | D-Arg-DMT-Lys-Phe [SS31] | improved | lesser | better | 
2 | DMT-D-MWWRRSRTNSLRYT ([Dmt][dM]WWRRSRTNSLRYT) [mTP4] | improved |  |  | 
3 | OCC(O)CO [Glycerol, glycerol] |  |  |  | greater than 3.5%
